Some results are limits rather than exact numbers.

T1 sequence (P52333 811-1103): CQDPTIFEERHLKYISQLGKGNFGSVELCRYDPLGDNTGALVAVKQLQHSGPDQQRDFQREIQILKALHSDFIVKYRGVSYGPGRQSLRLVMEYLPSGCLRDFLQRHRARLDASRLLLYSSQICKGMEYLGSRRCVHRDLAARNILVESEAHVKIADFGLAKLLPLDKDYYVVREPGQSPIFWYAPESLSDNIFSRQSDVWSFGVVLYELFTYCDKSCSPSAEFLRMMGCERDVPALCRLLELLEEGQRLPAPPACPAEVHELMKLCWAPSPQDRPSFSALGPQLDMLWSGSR

The first assay has as its target T1, Jak3 (Homo sapiens, UniProt P52333).
T1 construct: Jak3 enzyme (aa 811-1103); expressed in SF9 cells as a GST fusion; GST; made in house; host or cells: SF9 insect cells
As to the kind of experiment: In vitro Jak3 kinase activity measured by trFRET. The following applies: Jak3 enzyme aa 811-1103, 0.001 mM ATP. It is filed as biochemical. From the text:
In Vitro Jak3 Kinase Activity Measured by Time-Resolved Fluorescence Resonance Energy Transfer (trFRET)
A word on the IC50: it is the concentration that inhibits the measured activity by half. `N#CC1(C(=O)N2CCCC(c3nnn4cnc5[nH]ccc5c34)C2)CC1` (racemic) [Examples #5 and #6, Step E, 1-(3-(7H-Pyrrolo[3,2-e][1,2,3]triazolo[1,5-c]pyrimidin-1-yl)piperidine-1-carbonyl)cyclopropanecarbonitrile] showed an IC50 of 1000 to 10000 nM.
Same read-out and setting: next, `N#CC1(C(=O)N2CCC[C@H](c3nnn4cnc5[nH]ccc5c34)C2)CC1` (single isomer, unassigned) [compound 5]: 1000 to 10000 nM; `N#CC1(C(=O)N2CCC[C@@H](c3nnn4cnc5[nH]ccc5c34)C2)CC1` (single isomer, unassigned) [compound 6]: 100 to 1000 nM; `c1cc2c(ncn3nnc(C4CCCCC4)c23)[nH]1` [Example #2, 1-Cyclohexyl-7H-pyrrolo[3,2-e][1,2,3]triazolo[1,5-c]pyrimidine]: 1000 to 10000 nM.
Still for that read-out and setting: next, `CC(C)c1nc(C2CCCN(C(=O)OCc3ccccc3)C2)c2c3cc[nH]c3ncn12` (stereo not shown) [Example #3, Benzyl 3-(3-isopropyl-7H-imidazo[1,5-c]pyrrolo[3,2-e]pyrimidin-1-yl)piperidine-1-carboxylate]: 1000 to 10000 nM; `O=C(OCc1ccccc1)N1CCCC(c2ncn3cnc4[nH]ccc4c23)C1` (stereo not shown) [Example #4, Benzyl 3-(7H-imidazo[1,5-c]pyrrolo[3,2-e]pyrimidin-1-yl)piperidine-1-carboxylate]: 1000 to 10000 nM.

In another assay the target is T2, Syk (Homo sapiens, UniProt P43405).
T2 construct: Syk catalytic domain (aa356-635, purified in-house at the Abbott Bioresearch Center); His tag (C); made in house; host or cells: SF9 insect cells
As to the kind of experiment: In vitro Syk kinase activity measured by trFRET. The format is biochemical. The conditions noted are these: Syk catalytic domain aa356-635, 0.001 mM ATP. Here is the method: In Vitro Syk Kinase Activity Measured by Time-Resolved Fluorescence Resonance Energy Transfer (trFRET)
0.3 nM Syk catalytic domain (aa356-635, purified in-house at the Abbott Bioresearch Center) was mixed with 0.1 μM peptide substrate (biotin-TYR1, Sequence: Biotin-(Ahx)-[…]-COOH) at varying concentrations of inhibitor in reaction buffer: 50 mM MOPSO pH 6.5, 10 mM MgCl2, 2 mM MnCl2, 2.5 mM DTT, 0.01% BSA, 0.1 mM Na3VO4 and 0.001 mM ATP. After about 60 min incubation at rt, the reaction was quenched by addition of EDTA (final concentration: 100 mM) and developed by addition of revelation reagents (final approximate concentrations: 30 mM HEPES pH 7.0, 0.06% BSA, 0.006% Tween-20, 0.24 M KF, 90 ng/mL PT66K (europium labeled anti-phosphotyrosine antibody cat #61T66KLB Cisbio, Bedford, Mass.) and 0.6 μg/mL SAXL (Phycolink streptavidin-allophycocyanin acceptor, cat #PJ52S, Prozyme, San Leandro, Calif.). The developed reaction was incubated in the dark either at about 4° C. for about 14 h or for about 60 min at rt, then read via a time-resolved fluorescence detector (Rubystar, BMG) using a 337 nm laser for excitation and emission wavelength of 665 nm. Within the linear range of the assay, the observed signal at 665 nm is directly related to phosphorylated product and used to calculate the IC50 values.
`c1cc2c(ncn3cnc(C4CCCCC4)c23)[nH]1` [Example #1, 1-Cyclohexyl-7H-imidazo[1,5-c]pyrrolo[3,2-e]pyrimidine]: the IC50 is 1 to 10 µM.
Still for that read-out and setting: the figure for `c1cc2c(ncn3nnc(C4CCCCC4)c23)[nH]1` [Example #2, 1-Cyclohexyl-7H-pyrrolo[3,2-e][1,2,3]triazolo[1,5-c]pyrimidine] is > 10 µM; for `CCCNC(=O)c1ccc(Nc2nc3[nH]ccc3c3nccn23)cc1` [Example #7, 4-(7H-Imidazo[1,2-c]pyrrolo[3,2-e]pyrimidin-5-ylamino)-N-propylbenzamide] it is > 10 µM; for `COc1ccc(-c2nnc3c4cc[nH]c4ncn23)cc1` [Example #8, 3-(4-Methoxyphenyl)-7H-pyrrolo[3,2-e][1,2,4]triazolo[4,3-c]pyrimidine] it is > 10 µM.
With `CS(=O)(=O)c1ccc(-c2nnc3c4cc[nH]c4ncn23)cc1` [Example #9, 3-(4-(Methylsulfonyl)phenyl)-7H-pyrrolo[3,2-e][1,2,4]triazolo[4,3-c]pyrimidine], the IC50 was > 10 µM.
Same read-out and setting: the figure for `CC(C)(O)c1ccc(-c2cnc3c4cc[nH]c4ncn23)cc1` [Example #10, 2-(4-(7H-Imidazo[1,2-c]pyrrolo[3,2-e]pyrimidin-3-yl)phenyl)propan-2-ol] is 0.1 to 1 µM; for `Brc1cnc2c3cc[nH]c3ncn12` [Example #10, Step D, 3-bromo-7H-imidazo[1,2-c]pyrrolo[3,2-e]pyrimidine] it is > 10 µM; for `c1cncc(-c2cn3cnc4[nH]ccc4c3n2)c1` [Example #11, 2-(Pyridin-3-yl)-7H-imidazo[1,2-c]pyrrolo[3,2-e]pyrimidine] it is 1 to 10 µM.
Same read-out and setting: next, `c1cc(-c2cc3c(ncn4ccnc34)[nH]2)ccn1` [Example #12, 8-(Pyridin-4-yl)-7H-imidazo[1,2-c]pyrrolo[3,2-e]pyrimidine]: 1 to 10 µM.
Same read-out and setting: the figure for `CC(=O)N1CCCC(c2nc(-c3ccc(C(C)C)cc3)n3cnc4[nH]ccc4c23)C1` (stereo not shown) [Example #13, 1-(3-(3-(4-Isopropylphenyl)-7H-imidazo[1,5-c]pyrrolo[3,2-e]pyrimidin-1-yl)piperidin-1-yl)ethanone] is 1 to 10 µM.

(Values after patent publication US20120330012A1, “Novel Tricyclic Compounds” (ABBOTT LABORATORIES, priority 2011, published 2012).)
